Reference: article PMC7024211, “Antifouling Napyradiomycins from Marine-Derived Actinomycetes Streptomyces aculeolatus” (Marine Drugs, 2020)
Converted amounts (≈) assume the structure as drawn.

Key:
[1] = cited from earlier work
Orcorhynchus mykiss = details: experimental data ref Tisler and Zagorc-Koncan, 2003; cited from earlier work
Daphnia magna [2] = details: experimental data ref Tisler and Zagorc-Koncan, 2003; cited from earlier work
Daphnia magna [3] = details: experimental data ref Tisler and Zagorc-Koncan, 2003; cited from earlier work; remark: listed apart in the source
Scenedesmus quadricauda = details: experimental data ref Tisler and Zagorc-Koncan, 2003; cited from earlier work
Oral rat/rabit = details: ref Acros Organics safety data sheet; cited from earlier work
M. hydrocarbonoclasticus [4] = assay: Biofilm inhibition assay (crystal violet); format: cell-based, Marinobacter hydrocarbonoclasticus; details: Marinobacter nauticus; for inhibition at 31.25 µg/mL: read-out: % Biofilm Inhibition ± SEM M. hydrocarbonoclasticus
Procedure: (§1) In a 96-well plate, biofilm grown cultures of M. hydrocarbonoclasticus and C. marina were incubated with napyradiomycins (1–12) at a concentration of 31.25 µg/mL. After discarding the media, biofilm inhibition was determined from OD600 measurements of crystal violet stained cells resuspended from the plate bottom with acetic acid.
(§2) Five marine bacterial species were used as models to assess antimicrofouling activity. The biofilm-forming marine bacteria Marinobacter hydrocarbonoclasticus DSM 8798 (ATCC 49840), Cobetia marina DSM 4741, Phaeobacter inhibens DSM 17,395, and Pseusooceanicola batsensis DSM 15,984 were obtained from DSMZ (Leibniz Institute DSMZ—German collection of Microorganisms and Cell Cultures) and Micrococcus luteus. Cultures were routinely grown in liquid marine broth (Carl Roth GmbH, Karlsruhe, Germany) with agitation (180 rpm) or on agar-supplemented marine broth, at 28 °C (M. hydrocarbonoclasticus and C. marina) or 30 °C (P. inhibens and P. batsensis). M. luteus was maintained in Brain Heart Infusion broth (BHI, Becton Dickinson, GmbH, Heidelberg, Germany) with agitation (180 rpm) or on agar-supplemented BHI, at 37 °C.
(§3) The antibiofilm activity of napyradiomycins (1–12) against the five marine bacterial species was assessed in 96-well polystyrene flat bottom microplates (Nunclon Delta Surface, Thermo Scientific, Roskilde, Denmark) as previously reported. For initial screening, bacterial overnight cultures were diluted to an optical density (OD600nm) value of 0.2 and incubated statically at 28 °C (M. hydrocarbonoclasticus, C. marina), 30 °C (P. inhibens, P. batsensis) or 37 °C (M. luteus) in the 96-well microplate in the presence or absence of 31.25 µg/mL of napyradiomycins, solubilized in DMSO. After 24 h (M. hydrocarbonoclasticus, C. marina) or 48 h (P. batsensis, P. inhibens, M. luteus) incubation, the OD600nm was determined. The planktonic cells and media were discarded, and the wells were washed twice with deionized water. The biofilm was fixed for 1 h at 60 °C and stained with crystal violet 0.06% for 10 min. The dye was discarded, and the wells were again washed twice with deionized water. The stained biofilm was solubilized with 30% acetic acid and the OD600nm was determined. […] The percentage of biofilm inhibition was calculated as the amount of biofilm relative to that of the bacterial species without added compounds (with the same amount of DMSO added). CuSO4 (5 μM), a potent antifouling agent used in antifouling paints, was used as reference.
(§4) All assays were performed in triplicate, and results are representative of the average and standard error of the mean (SEM). Statistical analysis was performed in GraphPad Prism 8.0.2, using one-way ANOVA followed by a Dunnett’s multiple comparisons test against the control (species grown with the same amount of DMSO added).

P. inhibens = assay: Biofilm inhibition assay (crystal violet); format: cell-based, Phaeobacter inhibens; details: 31.25 µg/mL
Procedure: as §1, §2, §3
All assays were performed in triplicate, and results are representative of the average and standard error of the mean (SEM). […]

M. luteus [5] = assay: Biofilm inhibition assay (crystal violet); format: cell-based, Micrococcus luteus
Procedure: as §1, §2, §3, §4

M. luteus [6] = assay: Bacterial growth inhibition assay (OD600nm); format: cell-based, Micrococcus luteus
Excerpt: as §2
(§5) The antibacterial activity of the napyradiomycins (1–12) was assessed in 96-well polystyrene flat bottom microplates (Nunclon Delta Surface, Thermo Scientific, Roskilde, Denmark) following previously reported procedures. […] After 24 h (M. hydrocarbonoclasticus, C. marina) or 48 h (P. batsensis, P. inhibens, M. luteus) incubation, the OD600nm was determined (Molecular Devices, Spectra Max 190). […] The percentage of growth inhibition was calculated as the amount of growth relative to that of the bacterial species without added compounds (with the same amount of DMSO added). CuSO4 (5 μM), a potent antifouling agent used in antifouling paints, was used as reference.
(§6) All assays were performed in triplicate, and results are representative of the average and standard error of the mean (SEM). Statistical analysis was performed in GraphPad Prism 8.0.2 (San Diego, CA, USA), using one-way ANOVA followed by a Dunnett’s multiple comparisons test against the control (species grown with the same amount of DMSO added).

P. batsensis = assay: Biofilm inhibition assay (crystal violet); format: cell-based, Pseudooceanicola batsensis; details: Pseudooceanicola batsensis; 31.25 µg/mL; read-out: % Biofilm Inhibition ± SEM P. batsensis
Procedure: as §1, §2, §3, §4

C. marina [7] = assay: Biofilm inhibition assay (crystal violet); format: cell-based, Cobetia marina; details: 31.25 µg/mL
Procedure: as §1, §2, §3, §4

[8] = Mussel plantigrade larvae settlement, 15 h acute exposure assay; format: in vivo; details: Mytilus galloprovincialis (mussel, plantigrade larvae), in vivo, no mortality at highest tested concentration 12 µg/mL
Procedure: (§7) Mussel (M. galloprovincialis) adhesive larvae (plantigrades) were used to assess in vivo the antifouling activity of napyradiomycins (1–12) towards macrofouling. Juvenile mussel aggregates were collected at the intertidal rocky shore during low spring tides, at Memória beach, Matosinhos, Portugal (41°13′59″ N; 8°43′28″ W). At the laboratory, immediately before the bioassays, mussel plantigrade larvae were screened and isolated from the juvenile aggregates using a binocular microscope (Olympus SZX2-ILLT, Hamburg, Germany) and washed with filtered seawater to remove organic debris. Only competent plantigrade larvae (those showing foot exploratory behavior) were selected and used in the exposure bioassays following previously validated procedures. Plantigrades were exposed in 24-well polystyrene plates for 15 h in the darkness at 18 °C. DMSO was used as solvent for crude extracts, fractions and pure compounds stock and working solutions. Working solutions were prepared by successive dilutions of stock solutions in DMSO and then diluted in filtered seawater to obtain the test solutions. DMSO concentration in test solutions was always 0.1%. Four well replicates were used per condition with five larvae per well. Two negative controls, one with ultra-pure water and the other with DMSO 0.1% were included in all bioassays, as well as a positive control with 5 μM CuSO4 (a potent antifouling agent). Anti-settlement bioactivity was determined by the presence/absence of fixed byssal threads produced by each individual larvae for all the conditions tested. […] Chi-square Pearsons goodness-of-fit test was applied to data in order to determine EC50. Significance was considered at p < 0.01 for all analyses, and 95% lower and upper confidence limits [95% LCL; UCL] were presented. Therapeutic ratio (LC50/EC50) was used to evaluate the effectiveness vs. toxicity of compounds [19, 21].

[9] = tested on: M. galloprovincialis plantigrade larvae; assay: as above; format: in vivo; details: 95% LCL, UCL in brackets; for EC50: Mytilus galloprovincialis, 15 h, read-out: EC50 [Conf. limits] larval settlement
Procedure: as §7

M. hydrocarbonoclasticus [10] = assay: Bacterial growth inhibition assay (OD600nm); format: cell-based, Marinobacter hydrocarbonoclasticus; details: 31.25 µg/mL
Procedure: As a first screening approach, liquid cultures of M. hydrocarbonoclasticus, and C. marina in a 96-well format were analyzed for bacterial growth inhibition by percent decrease in OD600 after incubation with napyradiomycins (1–12) at 31.25 µg/mL.
as §2
The antibacterial activity of the napyradiomycins (1–12) was assessed in 96-well polystyrene flat bottom microplates (Nunclon Delta Surface, Thermo Scientific, Roskilde, Denmark) following previously reported procedures. For initial screening, bacterial overnight cultures were diluted to an optical density (OD600nm) of 0.2 and incubated statically at 28 °C (M. hydrocarbonoclasticus, C. marina), 30 °C (P. inhibens, P. batsensis) or 37 °C (M. luteus) in a 96-well microplate in the presence or absence of 31.25 µg/mL of the napyradiomycins, solubilized in DMSO. After 24 h (M. hydrocarbonoclasticus, C. marina) or 48 h (P. batsensis, P. inhibens, M. luteus) incubation, the OD600nm was determined (Molecular Devices, Spectra Max 190). […] The percentage of growth inhibition was calculated as the amount of growth relative to that of the bacterial species without added compounds (with the same amount of DMSO added). CuSO4 (5 μM), a potent antifouling agent used in antifouling paints, was used as reference.
as §6

C. marina [11] = assay: Bacterial growth inhibition assay (OD600nm); format: cell-based, Cobetia marina; details: 31.25 µg/mL
Excerpt: as §2, §5, §6

SMILES: [Cu] [Copper]
- ATE category [1]: 3 (category 3, 50 < ATE ≤ 300 mg/Kg)
- Aquatic toxicity Fish Orcorhynchus mykiss 96 hour LC50 (Orcorhynchus mykiss): 0.48 µg/mL
- Chronic toxicity Daphnia magna 21 day NOEC (Daphnia magna [2]): 0.015 mg/L
- Aquatic toxicity Daphnia magna EC50 48 hour (Daphnia magna [3]): 0.030 µg/mL
- Aquatic toxicity Alga Scenedesmus quadricauda 72 hour IC50 (Scenedesmus quadricauda): 0.18 µg/mL
- Acute toxicity Oral rat/rabit LD50 (Oral rat/rabit): 140 mg/kg

SMILES: C=C(C)C(O)CC/C(C)=C/C[C@@]12OC(C)(C)[C@H](Cl)C[C@]1(Cl)C(=O)c1c(O)cc(O)cc1C2=O (stereo partly drawn) [Napyradiomycin 4, napyradiomycin A2]
- inhibition at 0.98 µg/mL (M. hydrocarbonoclasticus [4]; 0.98 µg/mL, read-out: % inhibition of biofilm formation M. hydro.): 56.1 ± 5.6%
- inhibition at 1.95 µg/mL (M. hydrocarbonoclasticus [4]; 1.95 µg/mL, read-out: % inhibition of biofilm formation M. hydro.): 78.1 ± 3%
- inhibition at 3.91 µg/mL (M. hydrocarbonoclasticus [4]; 3.91 µg/mL, read-out: % inhibition of biofilm formation M. hydro.): 84.5 ± 2%
- inhibition at 7.81 µg/mL (M. hydrocarbonoclasticus [4]; 7.81 µg/mL, read-out: % inhibition of biofilm formation M. hydro.): 67 ± 5.5%
- inhibition at 15.6 µg/mL (M. hydrocarbonoclasticus [4]; 15.6 µg/mL, read-out: % inhibition of biofilm formation M. hydro.): 82.3 ± 1.5%
- inhibition at 31.25 µg/mL (M. hydrocarbonoclasticus [4]): 56.9 ± 5.7%
- % Biofilm Inhibition ± SEM P. inhibens (P. inhibens): N.I.
- % inhibition of biofilm formation M. luteus (M. luteus [5]; 0.98 µg/mL): 93.8 ± 4.1%
- inhibition at 0.98 µg/mL (M. luteus [5]; Micrococcus luteus, 0.98 µg/mL, read-out: % inhibition of biofilm formation M. luteus): > 90%
- inhibition at 1.95 µg/mL (M. luteus [5]; Micrococcus luteus, 1.95 µg/mL, read-out: % inhibition of biofilm formation M. luteus): 91.7 ± 0.9%
- inhibition at 3.91 µg/mL (M. luteus [5]; Micrococcus luteus, 3.91 µg/mL, read-out: % inhibition of biofilm formation M. luteus): 100 ± 0.4%
- inhibition at 7.81 µg/mL (M. luteus [5]; Micrococcus luteus, 7.81 µg/mL, read-out: % inhibition of biofilm formation M. luteus): 86.7 ± 3%
- inhibition at 15.6 µg/mL (M. luteus [5]; Micrococcus luteus, 15.6 µg/mL, read-out: % inhibition of biofilm formation M. luteus): 88.8 ± 4.2%
- inhibition at 31.25 µg/mL (M. luteus [5]; Micrococcus luteus, 31.25 µg/mL, read-out: % Biofilm Inhibition ± SEM M. luteus): 97 ± 1.2%
- inhibition at 0.98 µg/mL (M. luteus [6]; Micrococcus luteus, 0.98 µg/mL): 38.7 ± 1.9%
- inhibition at 1.95 µg/mL (M. luteus [6]; Micrococcus luteus, 1.95 µg/mL): 51.7 ± 4.5%
- inhibition at 3.91 µg/mL (M. luteus [6]; Micrococcus luteus, 3.91 µg/mL): 61.2 ± 3.7%
- inhibition at 7.81 µg/mL (M. luteus [6]; Micrococcus luteus, 7.81 µg/mL): 53.3 ± 5.7%
- inhibition at 15.6 µg/mL (M. luteus [6]; Micrococcus luteus, 15.60 µg/mL): 60.1 ± 8.5%
- inhibition at 31.25 µg/mL (M. luteus [6]; Micrococcus luteus, 31.25 µg/mL): 72.5 ± 7.7%
- % growth inhibition M. luteus (M. luteus [6]; all tested concentrations): approximately 50%
- inhibition at 31.25 µg/mL (P. batsensis): 13.4 ± 0.8%
- % Biofilm Inhibition ± SEM C. marina (C. marina [7]): N.I.
- LC50 at 15 h [8]: > 12 µg/mL
- EC50 [9]: 6.34 µg/mL (≈ 12.7 µM)

SMILES: C=C1CCC(Cl)C(C)(C)C1C[C@@]12OC(C)(C)[C@H](Cl)C=C1C(=O)c1c(cc(O)c(C)c1O)C2=O (stereo partly drawn) [Napyradiomycin 12, 4-dehydro-4a-dechloro-napyradiomycin A80915A]
- inhibition at 31.25 µg/mL (M. hydrocarbonoclasticus [4]): 33.7 ± 5.1%
- % growth inhibition M. hydrocarbonoclasticus (M. hydrocarbonoclasticus [10]): did not inhibit growth
- % growth inhibition C. marina (C. marina [11]): did not inhibit growth
- % Biofilm Inhibition ± SEM C. marina (C. marina [7]): N.I.
- LC50 at 15 h [8]: > 12 µg/mL
- EC50 [Conf. limits] larval settlement [9]: 0.947 [0.586; 1.473] µg/mL
- EC50 [9]: 0.95 µg/mL (≈ 1.93 µM)

SMILES: [As] [Arsenic]
- ATE category [1]: 2 (category 2, 5 < ATE ≤ 50 mg/Kg)
- Aquatic toxicity Fish Orcorhynchus mykiss 96 hour LC50 (Orcorhynchus mykiss): 15.3 µg/mL
- Chronic toxicity Daphnia magna 21 day NOEC (Daphnia magna [2]): 1.85 mg/L
- Aquatic toxicity Daphnia magna EC50 48 hour (Daphnia magna [3]): 2.5 µg/mL
- Aquatic toxicity Alga Scenedesmus quadricauda 72 hour IC50 (Scenedesmus quadricauda): 34.7 µg/mL
- Acute toxicity Oral rat/rabit LD50 (Oral rat/rabit): 12 mg/kg

SMILES: Cc1c(O)cc2c(c1O)C(=O)C1(Cl)CC(Cl)C(C)(C)OC1(CC1C(C)(O)CCC(Cl)C1(C)C)C2=O (stereo not drawn) [Napyradiomycin 10, napyradiomycin A80915C]
- inhibition at 31.25 µg/mL (M. hydrocarbonoclasticus [4]): 25.1 ± 10.2%
- % growth inhibition M. hydrocarbonoclasticus (M. hydrocarbonoclasticus [10]): did not inhibit growth
- % growth inhibition C. marina (C. marina [11]): did not inhibit growth
- % Biofilm Inhibition ± SEM C. marina (C. marina [7]): N.I.
- LC50 at 15 h [8]: > 12 µg/mL
- EC50 [Conf. limits] larval settlement [9]: 0.102 [0.072; 0.140] µg/mL
- EC50 [9]: 0.1 µg/mL (≈ 0.183 µM)
